# Experimental data published in patent publication US12655106B2 (Eikonizo Therapeutics, Inc., priority 2021, dated 2026).
# Assays:
# Full length Human HDAC6 = biological target: T1, Full length Human HDAC6 (Homo sapiens, UniProt Q9UBN7); experiment: Caliper endpoint assay for HDAC enzymatic activity (HDAC6); assay type: biochemical; conditions: for IC50: in vitro enzymatic, Caliper endpoint assay, 30 min pre-incubation, 1 μM substrate peptide; for Selectivity (6 v 8): ratio of HDAC8 IC50/HDAC6 IC50
# T1 construct: Full length Human HDAC6; FLAG (C); host or cells: baculovirus expression system
# T1 sequence (Q9UBN7 1-1215): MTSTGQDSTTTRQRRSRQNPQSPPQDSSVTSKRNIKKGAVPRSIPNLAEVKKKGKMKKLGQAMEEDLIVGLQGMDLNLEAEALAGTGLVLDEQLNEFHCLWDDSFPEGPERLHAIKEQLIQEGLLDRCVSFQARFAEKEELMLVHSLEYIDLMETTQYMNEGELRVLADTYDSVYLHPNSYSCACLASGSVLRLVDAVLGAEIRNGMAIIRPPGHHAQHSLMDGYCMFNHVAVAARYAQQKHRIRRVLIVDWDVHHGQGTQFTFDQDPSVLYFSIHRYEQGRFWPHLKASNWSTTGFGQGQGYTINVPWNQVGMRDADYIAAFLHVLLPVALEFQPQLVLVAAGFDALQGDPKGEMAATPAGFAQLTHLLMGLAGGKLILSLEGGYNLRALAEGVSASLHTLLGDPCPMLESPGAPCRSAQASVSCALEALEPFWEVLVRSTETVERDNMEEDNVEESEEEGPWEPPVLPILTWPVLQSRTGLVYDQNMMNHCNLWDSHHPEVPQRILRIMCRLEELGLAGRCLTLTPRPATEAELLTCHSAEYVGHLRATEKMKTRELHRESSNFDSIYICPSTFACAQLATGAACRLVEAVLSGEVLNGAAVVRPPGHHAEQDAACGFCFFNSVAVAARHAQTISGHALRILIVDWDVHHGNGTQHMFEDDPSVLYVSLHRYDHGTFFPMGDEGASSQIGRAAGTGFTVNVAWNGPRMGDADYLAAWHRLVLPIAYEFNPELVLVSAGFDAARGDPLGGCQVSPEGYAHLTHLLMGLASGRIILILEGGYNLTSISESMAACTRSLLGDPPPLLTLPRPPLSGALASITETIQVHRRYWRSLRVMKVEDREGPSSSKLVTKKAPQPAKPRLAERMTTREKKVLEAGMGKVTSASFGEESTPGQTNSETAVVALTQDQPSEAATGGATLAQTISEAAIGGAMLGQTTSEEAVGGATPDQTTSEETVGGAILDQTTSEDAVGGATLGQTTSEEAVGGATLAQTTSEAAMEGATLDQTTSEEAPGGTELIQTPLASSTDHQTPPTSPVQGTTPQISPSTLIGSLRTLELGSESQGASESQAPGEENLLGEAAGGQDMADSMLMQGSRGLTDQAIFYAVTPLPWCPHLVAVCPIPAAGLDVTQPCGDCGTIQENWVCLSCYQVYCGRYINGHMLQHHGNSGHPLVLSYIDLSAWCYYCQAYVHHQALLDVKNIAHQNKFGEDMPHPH
# Full length Human HDAC8 = biological target: T2, Full length Human HDAC8 (Homo sapiens, UniProt Q9BY41); experiment: Caliper endpoint assay for HDAC enzymatic activity (HDAC8); assay type: biochemical; conditions: in vitro enzymatic, 30 min pre-incubation, 1 μM substrate peptide
# T2 construct: Full length Human HDAC8; HIS (N); host or cells: baculovirus expression system
# T2 sequence (Q9BY41 1-377): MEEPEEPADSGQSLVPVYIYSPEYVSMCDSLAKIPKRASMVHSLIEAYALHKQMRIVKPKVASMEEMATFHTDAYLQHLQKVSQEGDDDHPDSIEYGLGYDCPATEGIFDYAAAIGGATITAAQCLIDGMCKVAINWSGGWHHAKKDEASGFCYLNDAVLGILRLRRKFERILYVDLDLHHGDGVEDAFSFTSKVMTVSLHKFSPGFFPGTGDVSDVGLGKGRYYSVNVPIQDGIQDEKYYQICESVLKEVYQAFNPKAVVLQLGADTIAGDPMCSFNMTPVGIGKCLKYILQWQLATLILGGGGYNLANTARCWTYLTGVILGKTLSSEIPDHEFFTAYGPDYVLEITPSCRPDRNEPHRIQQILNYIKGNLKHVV
Structure (SMILES),IC50 (Full length Human HDAC6) [nM],Selectivity (6 v 8) (Full length Human HDAC6),IC50 (Full length Human HDAC8) [nM]
O=C(NO)c1cc(F)c2c(c1)CN1CCCC[C@@H]1C2 [Compound 145],1 to 100,IV (IV: >100-1000),10000 to 100000
O=C(NO)c1cc(F)c2c(c1)CN1CCCC[C@H]1C2 [Compound 146],100 to 1000,III (III: >10-100),10000 to 100000
O=C(NO)c1ccc2c(c1)CCN1CCC[C@H]21 [Compound 148],1000 to 10000,II (II: >1-10),1000 to 10000
O=C(NO)c1ccc2c(c1)CCN1CCC[C@@H]21 [Compound 149],100 to 1000,II (II: >1-10),1000 to 10000
O=C(NO)c1ccc2c(c1)CN1CCC[C@H]21 [Compound 164],1000 to 10000,II (II: >1-10),1000 to 10000
CC[C@H]1N(Cc2ccc(C(=O)NO)cc2F)CC12CCCC2 [Compound 169],1 to 100,–,1000 to 10000
O=C(NO)c1ccc(CN2C[C@H]3CC[C@@H]2CO3)c(F)c1 [Compound 173],1 to 100,–,1000 to 10000
O=C(NO)c1cc(F)c2c(c1)CCN(CC13CC4CC(CC(C4)N1)C3)C2 [Compound 176],1 to 100,V (V: >1000),10000 to 100000
"O=C(NO)c1cc(F)c2c(c1)CCN(C1CC3(CCOCC3)C1)C2 [Compound 179, 8-Fluoro-N-hydroxy-2-(7-oxaspiro[3.5]nonan-2-yl)-1,2,3,4-tetrahydroisoquinoline-6-carboxamide]",1 to 100,V (V: >1000),> 100000
"O=C(NO)c1cc(F)c2c(c1)CCN(C1CCC3(CCCCC3)CC1)C2 [Compound 182, 8-fluoro-2-spiro[5.5]undecan-3-yl-3,4-dihydro-1H-isoquinoline-6-carbohydroxamic acid]",1 to 100,IV (IV: >100-1000),10000 to 100000
"O=C(NO)c1cc(F)c2c(c1)CCN(C1CC3(CCCC3)C1)C2 [Compound 183, 8-fluoro-N-hydroxy-2-(spiro[3.4]octan-2-yl)-1,2,3,4-tetrahydroisoquinoline-6-carboxamide]",1 to 100,V (V: >1000),> 100000
"O=C(NO)c1cc(F)c2c(c1)CCN(C1CCC3(CCC3)CC1)C2 [Compound 192, 8-fluoro-2-spiro[3.5]nonan-7-yl-3,4-dihydro-1H-isoquinoline-6-carbohydroxamic acid]",1 to 100,V (V: >1000),10000 to 100000
"O=C(NO)c1cc(F)c2c(c1)CCN(C1CCC3(CCCC3)CC1)C2 [Compound 193, 8-fluoro-2-spiro[4.5]decan-8-yl-3,4-dihydro-1H-isoquinoline-6-carbohydroxamic acid]",1 to 100,V (V: >1000),10000 to 100000
"O=C(NO)c1cc(F)c2c(c1)CCN(C1CC3(CCNCC3)C1)C2 [Compound 197, 2-(7-azaspiro[3.5]nonan-2-yl)-8-fluoro-3,4-dihydro-1H-isoquinoline-6-carbohydroxamic acid]",1 to 100,IV (IV: >100-1000),10000 to 100000
"CN1CCC2(CC1)CC(N1CCc3cc(C(=O)NO)cc(F)c3C1)C2 [Compound 198, 8-fluoro-N-hydroxy-2-(7-methyl-7-azaspiro[3.5]nonan-2-yl)-1,2,3,4-tetrahydroisoquinoline-6-carboxamide]",1 to 100,IV (IV: >100-1000),10000 to 100000
"CC(=O)N1CCC2(CC1)CC(N1CCc3cc(C(=O)NO)cc(F)c3C1)C2 [Compound 199, 2-(7-acetyl-7-azaspiro[3.5]nonan-2-yl)-8-fluoro-N-hydroxy-1,2,3,4-tetrahydroisoquinoline-6-carboxamide]",1 to 100,IV (IV: >100-1000),10000 to 100000
"CC1(C)CC(N2CCc3cc(C(=O)NO)cc(F)c3C2)C1 [Compound 201, 2-(3,3-dimethylcyclobutyl)-8-fluoro-3,4-dihydro-1H-isoquinoline-6-carbohydroxamic acid]",1 to 100,V (V: >1000),10000 to 100000
"O=C(NO)c1cc(F)c2c(c1)CN(CC13CC4CC(CC(C4)O1)C3)CC2 [Compound 213, 2-(((1r,3s,5R,7S)-2-oxaadamantan-1-yl)methyl)-5-fluoro-N-hydroxy-1,2,3,4-tetrahydroisoquinoline-7-carboxamide]",1 to 100,III (III: >10-100),100 to 1000
